{"source": "paper PMC8429728", "about": "“TNK1 is a ubiquitin-binding and 14-3-3-regulated kinase that can be targeted to block tumor growth” (Nature Communications, 2021)", "assay_in_all_cases": "biochemical", "design_in_all_cases": "Reaction Biology 371-kinase panel at Km ATP, per cent enzyme activity relative to DMSO, single dose in duplicate", "key": {"PAK6": {"target": "PAK6 (Homo sapiens, UniProt Q9NQU5)", "sequence (Q9NQU5 whole entry)": "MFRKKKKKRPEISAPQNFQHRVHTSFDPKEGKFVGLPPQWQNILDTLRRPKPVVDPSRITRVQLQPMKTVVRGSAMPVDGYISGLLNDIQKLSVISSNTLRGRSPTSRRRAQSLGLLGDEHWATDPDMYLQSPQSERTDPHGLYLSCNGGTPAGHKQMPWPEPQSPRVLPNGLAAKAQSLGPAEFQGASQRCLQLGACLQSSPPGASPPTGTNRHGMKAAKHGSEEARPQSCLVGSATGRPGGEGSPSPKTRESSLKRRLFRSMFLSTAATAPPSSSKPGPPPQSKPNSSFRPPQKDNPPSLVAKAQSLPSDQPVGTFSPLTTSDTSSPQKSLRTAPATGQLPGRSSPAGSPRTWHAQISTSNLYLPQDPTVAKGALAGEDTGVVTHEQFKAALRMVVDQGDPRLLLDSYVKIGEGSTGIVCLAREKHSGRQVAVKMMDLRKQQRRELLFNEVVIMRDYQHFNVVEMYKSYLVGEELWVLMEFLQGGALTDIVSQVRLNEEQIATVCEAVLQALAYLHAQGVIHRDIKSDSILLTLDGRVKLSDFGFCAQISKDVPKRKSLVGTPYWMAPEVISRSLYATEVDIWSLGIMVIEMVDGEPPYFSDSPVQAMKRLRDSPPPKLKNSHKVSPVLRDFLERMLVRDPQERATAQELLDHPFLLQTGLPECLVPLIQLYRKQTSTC", "details": "duplicate measurements, Km ATP", "method_in_brief": "(§1)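 Percent kinase activity relative to vehicle (DMSO) is reported for a 371-kinase in vitro panel at 300 nM compound; IC50 values derive from variable-slope sigmoidal fits with the lower plateau fixed at 0.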"}, "MARK3": {"target": "MARK3 (Homo sapiens, UniProt P27448)", "sequence (P27448 whole entry)": "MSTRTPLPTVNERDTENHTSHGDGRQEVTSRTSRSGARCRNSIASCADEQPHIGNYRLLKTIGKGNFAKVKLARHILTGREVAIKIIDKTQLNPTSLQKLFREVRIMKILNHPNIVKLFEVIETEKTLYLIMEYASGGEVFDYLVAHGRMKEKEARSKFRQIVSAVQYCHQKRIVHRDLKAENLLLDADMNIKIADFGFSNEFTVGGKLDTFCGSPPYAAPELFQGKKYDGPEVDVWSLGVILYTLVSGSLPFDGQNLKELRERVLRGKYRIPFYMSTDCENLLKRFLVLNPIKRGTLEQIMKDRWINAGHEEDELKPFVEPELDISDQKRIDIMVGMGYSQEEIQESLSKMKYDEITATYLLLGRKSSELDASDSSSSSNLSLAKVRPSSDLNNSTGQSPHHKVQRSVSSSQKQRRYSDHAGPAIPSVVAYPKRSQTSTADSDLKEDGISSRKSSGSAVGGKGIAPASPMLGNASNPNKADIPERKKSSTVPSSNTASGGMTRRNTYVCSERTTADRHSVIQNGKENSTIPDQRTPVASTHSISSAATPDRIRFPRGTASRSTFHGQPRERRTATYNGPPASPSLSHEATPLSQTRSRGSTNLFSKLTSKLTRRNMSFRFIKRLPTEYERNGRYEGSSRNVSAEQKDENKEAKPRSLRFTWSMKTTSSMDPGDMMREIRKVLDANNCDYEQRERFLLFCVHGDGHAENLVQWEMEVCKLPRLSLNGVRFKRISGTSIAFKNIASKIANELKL", "details": "duplicate measurements, Km ATP", "method_in_brief": "as §1"}, "ASK1/MAP3K5": {"target": "ASK1/MAP3K5 (Homo sapiens, UniProt Q99683)", "details": "duplicate measurements, Km ATP", "method_in_brief": "as §1"}, "DYRK1B": {"target": "DYRK1B (Homo sapiens, UniProt Q9Y463)", "details": "duplicate measurements, Km ATP", "method_in_brief": "as §1"}, "DAPK1": {"target": "DAPK1 (Homo sapiens, UniProt P53355)", "details": "duplicate measurements, Km ATP", "method_in_brief": "as §1"}, "CDK14/cyclin Y (PFTK1)": {"target": "CDK14/cyclin Y (PFTK1) (Homo sapiens, UniProt O94921)", "details": "duplicate measurements, Km ATP", "method_in_brief": "as §1"}, "TNK1": {"target": "T1, TNK1 (Homo sapiens, UniProt Q13470)", "T1 sequence (Q13470 1-666)": "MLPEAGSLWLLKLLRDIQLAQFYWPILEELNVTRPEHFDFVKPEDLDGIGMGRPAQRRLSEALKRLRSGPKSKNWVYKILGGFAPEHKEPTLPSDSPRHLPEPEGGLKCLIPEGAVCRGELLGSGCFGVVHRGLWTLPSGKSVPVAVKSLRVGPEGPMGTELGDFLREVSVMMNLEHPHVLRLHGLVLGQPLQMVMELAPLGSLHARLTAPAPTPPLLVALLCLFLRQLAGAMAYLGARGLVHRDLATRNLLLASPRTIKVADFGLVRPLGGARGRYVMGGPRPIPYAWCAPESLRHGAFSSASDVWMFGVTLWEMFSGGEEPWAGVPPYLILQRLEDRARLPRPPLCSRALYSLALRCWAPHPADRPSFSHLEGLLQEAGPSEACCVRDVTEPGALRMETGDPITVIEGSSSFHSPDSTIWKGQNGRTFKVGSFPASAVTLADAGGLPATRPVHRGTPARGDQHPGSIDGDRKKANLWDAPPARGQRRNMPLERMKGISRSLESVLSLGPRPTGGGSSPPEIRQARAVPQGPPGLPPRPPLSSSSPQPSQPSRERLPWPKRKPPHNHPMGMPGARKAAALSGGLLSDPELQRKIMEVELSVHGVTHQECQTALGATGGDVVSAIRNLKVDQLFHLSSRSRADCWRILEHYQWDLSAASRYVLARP", "details": "duplicate measurements, Km ATP", "method_in_brief": "as §1"}, "ALK2/ACVR1": {"target": "ALK2/ACVR1 (Homo sapiens, UniProt Q04771)", "details": "duplicate measurements, Km ATP; read-out: % Enzyme Activity (relative to DMSO controls) / TP-0005801 (0.3µM) / Data 1", "method_in_brief": "as §1"}, "PKN2/PRK2": {"target": "PKN2/PRK2 (Homo sapiens, UniProt Q16513)", "details": "duplicate measurements, Km ATP", "method_in_brief": "as §1"}, "CDK19/cyclin C": {"target": "CDK19/cyclin C (Homo sapiens, UniProt Q9BWU1)", "sequence (Q9BWU1 whole entry)": "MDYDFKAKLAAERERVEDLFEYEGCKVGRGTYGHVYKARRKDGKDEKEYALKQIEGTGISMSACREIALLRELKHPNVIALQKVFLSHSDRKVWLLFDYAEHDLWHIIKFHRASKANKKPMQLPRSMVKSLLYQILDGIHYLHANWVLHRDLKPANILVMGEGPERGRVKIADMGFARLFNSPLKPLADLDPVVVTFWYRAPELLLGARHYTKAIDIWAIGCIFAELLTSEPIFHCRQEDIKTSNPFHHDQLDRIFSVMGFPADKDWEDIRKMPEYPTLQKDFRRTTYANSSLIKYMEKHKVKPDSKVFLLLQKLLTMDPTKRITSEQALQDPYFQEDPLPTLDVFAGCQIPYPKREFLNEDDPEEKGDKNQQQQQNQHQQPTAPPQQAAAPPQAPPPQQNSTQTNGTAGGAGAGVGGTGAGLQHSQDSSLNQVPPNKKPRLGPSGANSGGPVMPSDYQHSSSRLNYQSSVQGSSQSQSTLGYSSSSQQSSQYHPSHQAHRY", "sequence (P24863 whole entry partner)": "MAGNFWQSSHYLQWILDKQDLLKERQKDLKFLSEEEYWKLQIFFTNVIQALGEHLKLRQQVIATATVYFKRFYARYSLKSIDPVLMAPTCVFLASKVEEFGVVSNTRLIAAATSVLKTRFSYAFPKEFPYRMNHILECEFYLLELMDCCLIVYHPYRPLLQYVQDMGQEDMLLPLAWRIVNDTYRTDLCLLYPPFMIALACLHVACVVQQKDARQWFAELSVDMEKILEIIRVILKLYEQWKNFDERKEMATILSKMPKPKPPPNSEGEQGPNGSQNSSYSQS", "details": "duplicate measurements, Km ATP", "method_in_brief": "as §1"}, "MLCK/MYLK": {"target": "MLCK/MYLK (Homo sapiens, UniProt Q15746)", "details": "duplicate measurements, Km ATP", "method_in_brief": "as §1"}, "TYK1/LTK": {"target": "TYK1/LTK (Homo sapiens, UniProt P29376)", "details": "duplicate measurements, Km ATP; read-out: % Enzyme Activity (relative to DMSO controls) / TP-0005801 (0.3µM) / Data 1", "method_in_brief": "as §1"}, "EPHB3": {"target": "EPHB3 (Homo sapiens, UniProt P54753)", "details": "duplicate measurements, Km ATP", "method_in_brief": "as §1"}, "CAMK4": {"target": "CAMK4 (Homo sapiens, UniProt Q16566)", "sequence (Q16566 whole entry)": "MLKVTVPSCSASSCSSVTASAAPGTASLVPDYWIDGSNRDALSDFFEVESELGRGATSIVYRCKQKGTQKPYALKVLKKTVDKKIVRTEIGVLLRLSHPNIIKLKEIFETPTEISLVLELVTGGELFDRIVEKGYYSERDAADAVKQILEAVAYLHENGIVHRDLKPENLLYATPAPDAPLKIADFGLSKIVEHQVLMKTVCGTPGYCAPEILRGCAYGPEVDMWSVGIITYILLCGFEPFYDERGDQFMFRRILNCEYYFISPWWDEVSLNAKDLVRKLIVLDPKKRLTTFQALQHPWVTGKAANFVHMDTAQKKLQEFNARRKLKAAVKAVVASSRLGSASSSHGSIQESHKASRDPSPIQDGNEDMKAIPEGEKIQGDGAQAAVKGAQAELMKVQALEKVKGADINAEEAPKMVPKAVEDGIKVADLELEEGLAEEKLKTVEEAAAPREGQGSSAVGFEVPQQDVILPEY", "details": "duplicate measurements, Km ATP", "method_in_brief": "as §1"}, "ROS/ROS1": {"target": "ROS/ROS1 (Homo sapiens, UniProt P08922)", "sequence (P08922 whole entry)": "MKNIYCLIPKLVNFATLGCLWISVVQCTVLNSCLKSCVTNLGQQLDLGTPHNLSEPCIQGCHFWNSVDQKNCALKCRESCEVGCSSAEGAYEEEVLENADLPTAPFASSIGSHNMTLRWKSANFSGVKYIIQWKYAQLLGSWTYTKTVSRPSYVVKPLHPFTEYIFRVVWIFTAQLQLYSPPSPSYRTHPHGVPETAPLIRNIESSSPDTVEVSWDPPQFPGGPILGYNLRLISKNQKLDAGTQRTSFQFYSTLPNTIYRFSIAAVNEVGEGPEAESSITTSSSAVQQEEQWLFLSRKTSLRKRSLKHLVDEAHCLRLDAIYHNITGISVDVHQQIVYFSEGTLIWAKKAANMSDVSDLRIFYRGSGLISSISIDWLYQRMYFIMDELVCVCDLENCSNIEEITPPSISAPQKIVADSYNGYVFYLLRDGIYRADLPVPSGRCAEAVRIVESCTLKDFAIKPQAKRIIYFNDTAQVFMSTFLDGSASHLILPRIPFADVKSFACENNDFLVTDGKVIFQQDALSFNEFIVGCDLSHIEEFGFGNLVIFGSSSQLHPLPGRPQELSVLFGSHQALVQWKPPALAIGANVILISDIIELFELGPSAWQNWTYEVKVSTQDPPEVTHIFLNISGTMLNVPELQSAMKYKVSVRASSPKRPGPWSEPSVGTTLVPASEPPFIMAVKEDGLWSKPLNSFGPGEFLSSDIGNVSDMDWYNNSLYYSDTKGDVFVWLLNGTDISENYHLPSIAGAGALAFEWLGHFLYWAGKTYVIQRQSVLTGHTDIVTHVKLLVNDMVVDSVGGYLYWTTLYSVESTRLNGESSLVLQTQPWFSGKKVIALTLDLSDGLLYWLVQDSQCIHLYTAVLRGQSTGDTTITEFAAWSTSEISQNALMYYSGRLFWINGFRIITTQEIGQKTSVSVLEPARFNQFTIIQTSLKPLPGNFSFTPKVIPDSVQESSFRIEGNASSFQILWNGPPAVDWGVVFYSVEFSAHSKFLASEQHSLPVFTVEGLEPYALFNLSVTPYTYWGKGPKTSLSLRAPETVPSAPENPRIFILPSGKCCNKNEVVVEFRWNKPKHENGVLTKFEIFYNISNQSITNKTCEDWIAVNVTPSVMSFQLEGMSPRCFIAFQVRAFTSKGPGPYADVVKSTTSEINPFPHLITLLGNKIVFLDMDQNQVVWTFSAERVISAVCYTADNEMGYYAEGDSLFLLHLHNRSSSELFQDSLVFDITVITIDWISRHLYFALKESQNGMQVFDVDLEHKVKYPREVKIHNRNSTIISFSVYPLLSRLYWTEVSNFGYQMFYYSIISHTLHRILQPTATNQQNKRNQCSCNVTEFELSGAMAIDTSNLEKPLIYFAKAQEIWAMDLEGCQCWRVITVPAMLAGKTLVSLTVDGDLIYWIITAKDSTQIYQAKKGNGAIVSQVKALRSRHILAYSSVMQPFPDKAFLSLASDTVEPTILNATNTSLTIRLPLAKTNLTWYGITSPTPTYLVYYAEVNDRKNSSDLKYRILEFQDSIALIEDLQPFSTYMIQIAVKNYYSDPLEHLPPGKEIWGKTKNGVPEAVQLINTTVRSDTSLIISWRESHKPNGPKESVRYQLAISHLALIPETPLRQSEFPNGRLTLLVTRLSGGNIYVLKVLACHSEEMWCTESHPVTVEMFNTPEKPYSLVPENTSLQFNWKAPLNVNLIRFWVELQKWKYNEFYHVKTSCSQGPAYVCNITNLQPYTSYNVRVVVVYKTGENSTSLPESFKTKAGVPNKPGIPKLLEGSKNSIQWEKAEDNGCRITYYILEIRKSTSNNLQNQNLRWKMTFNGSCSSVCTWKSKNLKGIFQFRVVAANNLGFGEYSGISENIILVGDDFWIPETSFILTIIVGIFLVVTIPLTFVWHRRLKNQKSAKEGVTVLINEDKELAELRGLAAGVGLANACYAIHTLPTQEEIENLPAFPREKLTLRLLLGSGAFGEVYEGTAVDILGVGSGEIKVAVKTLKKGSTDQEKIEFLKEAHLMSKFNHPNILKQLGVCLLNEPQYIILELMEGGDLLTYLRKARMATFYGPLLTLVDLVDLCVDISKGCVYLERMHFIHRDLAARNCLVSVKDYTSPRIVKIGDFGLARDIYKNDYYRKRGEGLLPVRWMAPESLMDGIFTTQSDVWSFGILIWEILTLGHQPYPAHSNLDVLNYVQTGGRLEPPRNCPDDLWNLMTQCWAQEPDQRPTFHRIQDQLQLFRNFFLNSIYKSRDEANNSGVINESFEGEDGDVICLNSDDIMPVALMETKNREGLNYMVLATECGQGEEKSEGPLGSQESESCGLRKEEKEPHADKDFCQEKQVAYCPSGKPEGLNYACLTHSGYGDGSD", "details": "duplicate measurements, Km ATP", "method_in_brief": "as §1"}, "TYRO3/SKY": {"target": "TYRO3/SKY (Homo sapiens, UniProt Q06418)", "details": "duplicate measurements, Km ATP; read-out: % Enzyme Activity (relative to DMSO controls) / TP-0005801 (0.3µM) / Data 1", "method_in_brief": "as §1"}, "[1]": {"details": "read-out: % Enzyme Activity (relative to DMSO controls) / TP-0005801 (0.3µM) / Data 1"}, "[2]": {"details": "read-out: % Enzyme Activity (relative to DMSO controls) / TP-0005801 (0.3µM) / Data 2"}}, "note": "Read-outs that look alike come from different tables or passages of the source.", "data": [{"compound": "COc1cc(N2CCN(C)CC2)c(C)cc1Nc1ncc(Br)c(Nc2cccnc2N(C)C)n1", "note": "[TP-5801]", "values": [{"measurement": "remaining activity at 0.3 µM", "setting": "PAK6; [1]", "value": 107, "unit": "%"}, {"measurement": "remaining activity at 0.3 µM", "setting": "PAK6; [2]", "value": 105, "unit": "%"}, {"measurement": "remaining activity at 0.3 µM", "setting": "MARK3; [1]", "value": 95.4, "unit": "%"}, {"measurement": "remaining activity at 0.3 µM", "setting": "MARK3; [2]", "value": 91.7, "unit": "%"}, {"measurement": "remaining activity at 0.3 µM", "setting": "ASK1/MAP3K5; [1]", "value": 99, "unit": "%"}, {"measurement": "remaining activity at 0.3 µM", "setting": "ASK1/MAP3K5; [2]", "value": 98.6, "unit": "%"}, {"measurement": "remaining activity at 0.3 µM", "setting": "DYRK1B; [1]", "value": 77.1, "unit": "%"}, {"measurement": "remaining activity at 0.3 µM", "setting": "DYRK1B; [2]", "value": 75.8, "unit": "%"}, {"measurement": "remaining activity at 0.3 µM", "setting": "DAPK1; [1]", "value": 102, "unit": "%"}, {"measurement": "remaining activity at 0.3 µM", "setting": "DAPK1; [2]", "value": 101, "unit": "%"}, {"measurement": "remaining activity at 0.3 µM", "setting": "CDK14/cyclin Y (PFTK1); [1]", "value": 91.8, "unit": "%"}, {"measurement": "remaining activity at 0.3 µM", "setting": "CDK14/cyclin Y (PFTK1); [2]", "value": 90.2, "unit": "%"}, {"measurement": "remaining activity at 0.3 µM", "setting": "TNK1; [1]", "value": 0.98, "unit": "%"}, {"measurement": "remaining activity at 0.3 µM", "setting": "TNK1; [2]", "value": 0.83, "unit": "%"}, {"measurement": "remaining activity at 0.3 µM", "setting": "ALK2/ACVR1", "value": 90.6, "unit": "%"}, {"measurement": "remaining activity at 0.3 µM", "setting": "PKN2/PRK2; [1]", "value": 97.2, "unit": "%"}, {"measurement": "remaining activity at 0.3 µM", "setting": "PKN2/PRK2; [2]", "value": 95.9, "unit": "%"}, {"measurement": "remaining activity at 0.3 µM", "setting": "CDK19/cyclin C; [1]", "value": 54.8, "unit": "%"}, {"measurement": "remaining activity at 0.3 µM", "setting": "CDK19/cyclin C; [2]", "value": 54.1, "unit": "%"}, {"measurement": "remaining activity at 0.3 µM", "setting": "MLCK/MYLK; [1]", "value": 93.8, "unit": "%"}, {"measurement": "remaining activity at 0.3 µM", "setting": "MLCK/MYLK; [2]", "value": 90.8, "unit": "%"}, {"measurement": "remaining activity at 0.3 µM", "setting": "TYK1/LTK", "value": 16.4, "unit": "%"}, {"measurement": "remaining activity at 0.3 µM", "setting": "EPHB3; [1]", "value": 104, "unit": "%"}, {"measurement": "remaining activity at 0.3 µM", "setting": "EPHB3; [2]", "value": 102, "unit": "%"}, {"measurement": "remaining activity at 0.3 µM", "setting": "CAMK4; [1]", "value": 96.9, "unit": "%"}, {"measurement": "remaining activity at 0.3 µM", "setting": "CAMK4; [2]", "value": 94.7, "unit": "%"}, {"measurement": "remaining activity at 0.3 µM", "setting": "ROS/ROS1; [1]", "value": 10.1, "unit": "%"}, {"measurement": "remaining activity at 0.3 µM", "setting": "ROS/ROS1; [2]", "value": 9.96, "unit": "%"}, {"measurement": "remaining activity at 0.3 µM", "setting": "TYRO3/SKY", "value": 105, "unit": "%"}]}]}
